Test results from patent publication US20150087627A1, “COMBINATION OF KINASE INHIBITORS AND USES THEREOF” (Intellikine LLC, priority 2011, published 2015).
pIC50: −log10 of the molar value. Like-named read-outs stand apart in the source and are kept apart here.

Experiments:
Format in all cases: biochemical
PI3K β (p110β/p85α) = target: T1, PI3K β (p110β/p85α) (Homo sapiens, UniProt P42338); experiment: PI 3-Kinase (human) HTRF assay, PI3K β; details: for pIC50: read-out: PI3K β IC50
T1 construct: purchased Upstate / Millipore Corporation
T1 sequence (P42338 whole entry): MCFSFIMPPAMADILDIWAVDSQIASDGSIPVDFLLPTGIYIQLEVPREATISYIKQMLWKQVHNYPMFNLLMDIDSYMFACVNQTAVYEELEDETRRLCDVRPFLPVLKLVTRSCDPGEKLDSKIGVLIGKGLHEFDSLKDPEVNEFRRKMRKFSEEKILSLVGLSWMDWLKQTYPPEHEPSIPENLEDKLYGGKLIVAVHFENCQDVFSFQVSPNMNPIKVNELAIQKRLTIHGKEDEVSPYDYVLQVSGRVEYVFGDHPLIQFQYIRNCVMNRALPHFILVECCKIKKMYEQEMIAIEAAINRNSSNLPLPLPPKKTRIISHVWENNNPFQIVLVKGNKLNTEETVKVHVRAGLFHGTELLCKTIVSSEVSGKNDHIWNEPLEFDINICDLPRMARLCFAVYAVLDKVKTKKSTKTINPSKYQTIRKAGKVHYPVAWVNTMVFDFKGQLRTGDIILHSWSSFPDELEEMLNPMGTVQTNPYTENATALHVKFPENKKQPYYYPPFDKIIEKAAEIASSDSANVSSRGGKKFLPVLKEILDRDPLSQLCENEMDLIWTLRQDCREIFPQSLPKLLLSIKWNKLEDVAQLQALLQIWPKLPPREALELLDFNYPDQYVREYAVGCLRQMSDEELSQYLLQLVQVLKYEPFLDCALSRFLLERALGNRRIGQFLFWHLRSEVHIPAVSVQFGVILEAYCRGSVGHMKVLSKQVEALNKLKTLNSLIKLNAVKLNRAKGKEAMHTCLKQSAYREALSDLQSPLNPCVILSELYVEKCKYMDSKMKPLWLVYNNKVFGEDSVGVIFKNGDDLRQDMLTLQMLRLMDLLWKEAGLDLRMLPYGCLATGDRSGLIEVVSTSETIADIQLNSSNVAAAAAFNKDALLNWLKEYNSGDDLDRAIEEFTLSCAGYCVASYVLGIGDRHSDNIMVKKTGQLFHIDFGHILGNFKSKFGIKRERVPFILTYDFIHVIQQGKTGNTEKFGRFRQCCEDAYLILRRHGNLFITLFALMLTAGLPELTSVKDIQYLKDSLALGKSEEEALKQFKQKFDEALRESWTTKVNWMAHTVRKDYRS
T1 sequence (P27986 whole entry partner): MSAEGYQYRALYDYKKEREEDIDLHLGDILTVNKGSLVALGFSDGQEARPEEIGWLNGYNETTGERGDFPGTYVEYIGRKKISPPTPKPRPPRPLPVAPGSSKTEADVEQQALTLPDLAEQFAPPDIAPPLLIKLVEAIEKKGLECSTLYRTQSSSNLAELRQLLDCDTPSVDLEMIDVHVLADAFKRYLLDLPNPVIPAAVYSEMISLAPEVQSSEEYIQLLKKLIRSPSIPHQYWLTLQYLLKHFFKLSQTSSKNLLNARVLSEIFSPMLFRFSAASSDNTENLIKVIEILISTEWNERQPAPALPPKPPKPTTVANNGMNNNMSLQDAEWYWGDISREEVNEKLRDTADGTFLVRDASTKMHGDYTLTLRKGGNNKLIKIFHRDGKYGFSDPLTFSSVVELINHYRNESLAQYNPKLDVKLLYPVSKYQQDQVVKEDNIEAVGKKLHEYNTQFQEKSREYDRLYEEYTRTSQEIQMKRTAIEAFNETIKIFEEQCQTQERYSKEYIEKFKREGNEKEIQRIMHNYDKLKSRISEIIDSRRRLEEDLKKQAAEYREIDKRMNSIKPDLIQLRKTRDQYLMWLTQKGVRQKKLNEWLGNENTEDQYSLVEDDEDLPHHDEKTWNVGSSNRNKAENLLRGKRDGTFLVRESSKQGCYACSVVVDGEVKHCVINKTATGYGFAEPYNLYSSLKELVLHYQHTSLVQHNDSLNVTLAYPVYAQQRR

PI3K α (p110α/p85α) = target: T2, PI3K α (p110α/p85α) (Homo sapiens, UniProt P42336); experiment: PI 3-Kinase (human) HTRF assay, PI3K α; details: read-out: PI3K α IC50
T2 construct: purchased Upstate / Millipore Corporation
T2 sequence (P42336 whole entry): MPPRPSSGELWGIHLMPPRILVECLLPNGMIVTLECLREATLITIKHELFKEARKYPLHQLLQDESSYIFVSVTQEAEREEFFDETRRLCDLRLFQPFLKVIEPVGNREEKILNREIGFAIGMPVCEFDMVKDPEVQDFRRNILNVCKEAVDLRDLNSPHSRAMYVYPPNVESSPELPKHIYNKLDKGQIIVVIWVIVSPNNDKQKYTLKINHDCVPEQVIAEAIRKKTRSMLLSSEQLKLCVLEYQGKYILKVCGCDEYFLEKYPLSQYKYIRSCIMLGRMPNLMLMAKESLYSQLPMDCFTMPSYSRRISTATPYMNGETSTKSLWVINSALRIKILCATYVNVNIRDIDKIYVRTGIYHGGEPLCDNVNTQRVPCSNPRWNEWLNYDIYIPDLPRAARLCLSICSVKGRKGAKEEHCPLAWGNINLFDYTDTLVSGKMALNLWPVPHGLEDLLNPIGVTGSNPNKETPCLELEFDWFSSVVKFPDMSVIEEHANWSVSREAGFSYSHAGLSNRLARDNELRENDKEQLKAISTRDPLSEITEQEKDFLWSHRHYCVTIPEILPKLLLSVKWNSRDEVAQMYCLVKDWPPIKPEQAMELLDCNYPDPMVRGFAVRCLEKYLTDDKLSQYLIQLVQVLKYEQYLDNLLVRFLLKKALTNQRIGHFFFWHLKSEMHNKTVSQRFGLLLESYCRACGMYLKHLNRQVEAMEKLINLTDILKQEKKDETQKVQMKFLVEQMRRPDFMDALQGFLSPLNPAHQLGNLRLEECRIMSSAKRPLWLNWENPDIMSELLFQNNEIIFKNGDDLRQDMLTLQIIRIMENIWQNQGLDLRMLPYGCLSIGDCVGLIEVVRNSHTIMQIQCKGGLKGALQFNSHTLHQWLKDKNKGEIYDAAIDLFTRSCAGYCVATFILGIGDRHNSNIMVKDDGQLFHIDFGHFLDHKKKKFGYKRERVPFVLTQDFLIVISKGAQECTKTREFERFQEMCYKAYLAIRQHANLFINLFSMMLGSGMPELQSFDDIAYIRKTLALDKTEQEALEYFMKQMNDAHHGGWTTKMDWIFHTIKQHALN
T2 sequence (P27986 whole entry partner): as the sequence (P27986 whole entry partner) above

PI3K δ = target: T3, PI3K δ (Homo sapiens, UniProt O00329); experiment: PI 3-Kinase (human) HTRF assay, PI3K δ
T3 construct: purchased Upstate / Millipore Corporation
T3 sequence (O00329 whole entry): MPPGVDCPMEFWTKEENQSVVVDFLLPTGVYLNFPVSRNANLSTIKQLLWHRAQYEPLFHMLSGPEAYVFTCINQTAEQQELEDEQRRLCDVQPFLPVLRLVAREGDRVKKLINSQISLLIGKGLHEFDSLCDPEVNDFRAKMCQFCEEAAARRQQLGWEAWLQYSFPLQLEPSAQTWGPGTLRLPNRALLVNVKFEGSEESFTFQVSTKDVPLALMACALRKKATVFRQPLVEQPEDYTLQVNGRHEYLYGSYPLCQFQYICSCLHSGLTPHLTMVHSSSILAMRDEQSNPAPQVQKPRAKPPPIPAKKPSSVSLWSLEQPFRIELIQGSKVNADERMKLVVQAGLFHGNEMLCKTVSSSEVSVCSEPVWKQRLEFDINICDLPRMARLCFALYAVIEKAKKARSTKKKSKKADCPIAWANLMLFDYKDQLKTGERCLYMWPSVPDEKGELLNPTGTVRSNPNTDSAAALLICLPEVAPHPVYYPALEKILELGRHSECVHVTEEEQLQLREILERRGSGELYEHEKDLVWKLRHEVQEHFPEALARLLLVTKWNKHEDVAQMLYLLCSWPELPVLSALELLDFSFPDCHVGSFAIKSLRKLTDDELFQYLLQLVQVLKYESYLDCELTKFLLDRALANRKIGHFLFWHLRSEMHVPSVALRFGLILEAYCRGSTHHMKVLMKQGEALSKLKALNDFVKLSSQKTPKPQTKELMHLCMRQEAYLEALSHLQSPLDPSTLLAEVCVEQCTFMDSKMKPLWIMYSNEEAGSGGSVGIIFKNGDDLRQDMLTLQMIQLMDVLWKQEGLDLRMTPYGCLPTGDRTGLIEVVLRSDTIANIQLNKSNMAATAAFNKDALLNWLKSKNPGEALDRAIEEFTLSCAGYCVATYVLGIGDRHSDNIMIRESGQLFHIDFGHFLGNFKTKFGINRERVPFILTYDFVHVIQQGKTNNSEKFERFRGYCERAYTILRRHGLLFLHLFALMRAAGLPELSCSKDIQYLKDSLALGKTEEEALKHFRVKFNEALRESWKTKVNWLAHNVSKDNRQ
T3 sequence (P27986 whole entry partner): as the sequence (P27986 whole entry partner) above

PI3K γ (p110γ) = target: T4, PI3K γ (p110γ) (Homo sapiens, UniProt P48736); experiment: PI 3-Kinase (human) HTRF assay, PI3K γ; details: for pIC50: read-out: PI3K γ IC50
T4 construct: purchased Upstate / Millipore Corporation
T4 sequence (P48736 whole entry): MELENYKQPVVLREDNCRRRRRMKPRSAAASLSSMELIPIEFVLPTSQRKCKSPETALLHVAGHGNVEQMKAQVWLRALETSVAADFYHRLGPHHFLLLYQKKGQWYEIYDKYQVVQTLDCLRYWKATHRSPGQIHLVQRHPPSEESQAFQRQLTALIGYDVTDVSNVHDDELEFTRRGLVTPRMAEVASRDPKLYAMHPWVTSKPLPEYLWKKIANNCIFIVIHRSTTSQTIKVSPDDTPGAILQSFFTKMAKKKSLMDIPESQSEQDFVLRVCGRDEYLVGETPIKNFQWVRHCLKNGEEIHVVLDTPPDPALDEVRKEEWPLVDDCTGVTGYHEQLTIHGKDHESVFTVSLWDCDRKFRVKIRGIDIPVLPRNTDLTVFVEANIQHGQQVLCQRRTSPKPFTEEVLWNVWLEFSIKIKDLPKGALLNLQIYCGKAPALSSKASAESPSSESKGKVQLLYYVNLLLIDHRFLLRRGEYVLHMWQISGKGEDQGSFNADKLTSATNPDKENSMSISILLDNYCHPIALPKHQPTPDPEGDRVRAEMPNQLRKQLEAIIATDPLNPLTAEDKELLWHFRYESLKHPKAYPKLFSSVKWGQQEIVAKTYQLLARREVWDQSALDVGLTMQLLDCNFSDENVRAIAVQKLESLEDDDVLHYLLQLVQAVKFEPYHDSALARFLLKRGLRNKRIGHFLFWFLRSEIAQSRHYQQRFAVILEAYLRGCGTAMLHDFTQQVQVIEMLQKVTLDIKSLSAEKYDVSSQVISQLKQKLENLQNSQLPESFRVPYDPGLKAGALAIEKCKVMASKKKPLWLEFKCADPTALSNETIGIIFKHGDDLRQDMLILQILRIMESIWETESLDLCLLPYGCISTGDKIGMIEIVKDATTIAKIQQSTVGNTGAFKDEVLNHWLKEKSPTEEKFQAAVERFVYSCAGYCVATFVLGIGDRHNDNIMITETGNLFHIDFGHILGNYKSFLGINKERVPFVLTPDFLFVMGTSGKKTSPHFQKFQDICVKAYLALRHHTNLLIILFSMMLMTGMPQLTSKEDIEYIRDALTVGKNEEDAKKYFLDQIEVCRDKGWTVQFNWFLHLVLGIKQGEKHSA

Row | Structure (SMILES) | pIC50 (PI3K β (p110β/p85α)) | pIC50 (PI3K α (p110α/p85α)) | pIC50 (PI3K δ; read-out: PI3K δ IC50) | pIC50 (PI3K γ (p110γ)) | IC50 (PI3K γ (p110γ); PI3K γ IC50 (nM)) [nM] | IC50 (PI3K β (p110β/p85α); PI3K β IC50 (nM)) [nM] | pIC50 (PI3K δ)
1 | O=C(c1cnc2ccc(-c3cccc(NS(=O)(=O)c4ccc(F)cc4F)c3)cn12)N1CCOCC1 [Compound 454] | < 5.00 | > 5.00 | > 5.00 | > 5.00 | – | – | –
2 | COc1ccc(-c2ccc3ncc(C(=O)N4CCOCC4)n3c2)cc1NS(C)(=O)=O [Compound 456] | < 5.00 | < 5.00 | < 5.00 | < 5.00 | – | – | –
3 | O=C(c1cnc2ccc(-c3cnc(Cl)c(NS(=O)(=O)c4ccc(F)cc4)c3)cn12)N1CCOCC1 [Compound 457] | > 7.00 | > 7.00 | > 7.00 | > 7.00 | – | – | –
4 | O=C(c1cnc2ccc(-c3cnc(Cl)c(NS(=O)(=O)c4cccc(F)c4)c3)cn12)N1CCOCC1 [Compound 458] | > 7.00 | > 7.00 | > 7.00 | > 7.00 | – | – | –
5 | CS(=O)(=O)Nc1cc(-c2ccc3ncc(C(=O)N4CCOCC4)n3c2)ccc1Cl [Compound 460] | < 5.00 | > 5.00 | < 5.00 | < 5.00 | – | – | –
6 | CO[C@H]1CCN(C(=O)c2cnc3ccc(-c4ccc5oc(N)nc5c4)cn23)C1 [Compound 463] | > 5.00 | > 7.00 | > 5.00 | > 6.00 | – | – | –
7 | CO[C@@H]1CCN(C(=O)c2cnc3ccc(-c4ccc5oc(N)nc5c4)cn23)C1 [Compound 464] | < 5.00 | > 7.00 | < 5.00 | > 6.00 | – | – | –
8 | Nc1nsc2c(-c3ccc4ncc(C(=O)N5CCOCC5)n4c3)cccc12 [Compound 474] | < 5.00 | > 5.00 | < 5.00 | < 5.00 | – | – | –
9 | Nc1nc2cc(-c3ccc4ncc(C(=O)N5CC[C@H](F)C5)n4c3)ccc2o1 [Compound 476] | < 5.00 | > 7.00 | < 5.00 | > 7.00 | – | – | –
10 | Nc1nc2cc(-c3ccc4ncc(C(=O)N5CC(n6cccn6)C5)n4c3)ccc2o1 [Compound 479] | < 5.00 | > 7.00 | > 5.00 | > 6.00 | – | – | –
11 | Nc1nc2cc(-c3ccc4ncc(C(=O)N5C6CCC5COC6)n4c3)ccc2o1 [Compound 480] | < 5.00 | > 7.00 | > 5.00 | – | < 1000 | – | –
12 | Nc1nc2cccc(-c3ccc4ncc(C(=O)N5CCOCC5)n4c3)c2o1 [Compound 484] | < 5.00 | > 6.00 | < 5.00 | < 5.00 | – | – | –
13 | Nc1nc2cccc(-c3ccc4ncc(C(=O)N5CCOCC5)n4c3)c2s1 [Compound 485] | < 5.00 | > 5.00 | < 5.00 | < 5.00 | – | – | –
14 | CNc1noc2cc(-c3ccc4ncc(C(=O)N5CCOCC5)n4c3)ccc12 [Compound 486] | < 5.00 | > 5.00 | < 5.00 | > 5.00 | – | – | –
15 | Nc1noc2cc(-c3ccc4ncc(C(=O)N5CCOCC5)n4c3)ccc12 [Compound 488] | < 5.00 | < 5.00 | < 5.00 | < 5.00 | – | – | –
16 | Nc1nsc2cc(-c3ccc4ncc(C(=O)N5CCOCC5)n4c3)ccc12 [Compound 489] | < 5.00 | > 5.00 | < 5.00 | < 5.00 | – | – | –
17 | Nc1noc2c(-c3ccc4ncc(C(=O)N5CCOCC5)n4c3)cccc12 [Compound 491] | < 5.00 | < 5.00 | < 5.00 | < 5.00 | – | – | –

Row | Structure (SMILES) | pIC50 (PI3K β (p110β/p85α)) | pIC50 (PI3K α (p110α/p85α)) | pIC50 (PI3K δ; read-out: PI3K δ IC50) | pIC50 (PI3K γ (p110γ)) | IC50 (PI3K γ (p110γ); PI3K γ IC50 (nM)) [nM] | IC50 (PI3K β (p110β/p85α); PI3K β IC50 (nM)) [nM] | pIC50 (PI3K δ)
18 | Nc1nc2cc(-c3ccc4ncc(C(=O)N5CCn6cncc6C5)n4c3)ccc2o1 [Compound 493] | > 6.00 | > 7.00 | < 5.00 | > 5.00 | – | – | –
19 | Nc1nc2cc(-c3ccc4ncc(C(=O)N5CC6(C5)OCCO6)n4c3)ccc2o1 [Compound 494] | – | > 7.00 | – | > 6.00 | – | < 10000 | < 5.00
20 | CNc1nsc2cc(-c3ccc4ncc(C(=O)N5CCOCC5)n4c3)ccc12 [Compound 497] | < 5.00 | < 5.00 | < 5.00 | < 5.00 | – | – | –
21 | Nc1nc2cc(-c3ccc4ncc(C(=O)N5CCC(N6CCC(F)(F)C6)C5)n4c3)ccc2o1 (stereo not shown) [Compound 500] | < 5.00 | > 6.00 | > 5.00 | > 5.00 | – | – | –
22 | Nc1nc2cc(-c3ccc4ncc(C(=O)N5CCC(F)(F)CC5)n4c3)ccc2o1 [Compound 501] | < 5.00 | > 6.00 | < 5.00 | > 5.00 | – | – | –
23 | Nc1nc2cc(-c3ccc4ncc(C(=O)N5CC6CCC(C5)O6)n4c3)ccc2o1 [Compound 504] | > 5.00 | > 6.00 | < 5.00 | > 7.00 | – | – | –
24 | O=C(c1cnc2ccc(-c3ccc4c(Nc5ccccc5)nsc4c3)cn12)N1CCOCC1 [Compound 505] | < 5.00 | < 5.00 | < 5.00 | < 5.00 | – | – | –
25 | O=C(c1cnc2ccc(-c3cncc4[nH]ncc34)cn12)N1CCOCC1 [Compound 506] | < 5.00 | > 7.00 | < 5.00 | < 5.00 | – | – | –
26 | Cc1cc2ncc(C(=O)N3CCOCC3)n2cc1-c1ccc2oc(N)nc2c1 [Compound 507] | < 5.00 | < 5.00 | < 5.00 | < 5.00 | – | – | –
27 | C[C@@H]1CN(C2CN(C(=O)c3cnc4ccc(-c5ccc6oc(N)nc6c5)cn34)C2)CCN1C [Compound 508] | > 5.00 | > 7.00 | > 6.00 | > 5.00 | – | – | –
28 | O=C(c1cnc2ccc(-c3ccc4c(Nc5ccccc5)noc4c3)cn12)N1CCOCC1 [Compound 509] | < 5.00 | < 5.00 | < 5.00 | < 5.00 | – | – | –
29 | C[C@H]1CN(C2CN(C(=O)c3cnc4ccc(-c5ccc6oc(N)nc6c5)cn34)C2)CCN1 [Compound 510] | > 5.00 | > 7.00 | > 6.00 | > 5.00 | – | – | –
30 | O=C(c1cnc2ccc(-c3cnc(Cl)c4[nH]ncc34)cn12)N1CCOCC1 [Compound 516] | < 5.00 | > 6.00 | < 5.00 | < 5.00 | – | – | –
31 | COc1ncc(-c2ccc3ncc(C(=O)N4CCOCC4)n3c2)c2cn[nH]c12 [Compound 517] | < 5.00 | > 6.00 | > 5.00 | > 5.00 | – | – | –
32 | CN1CCN(n2cnc3ccc(-c4ccc5oc(N)nc5c4)cc3c2=O)CC1 [Compound 518] | < 5.00 | > 6.00 | < 5.00 | < 5.00 | – | – | –
33 | CC(C)N1CCC(n2cnc3ccc(-c4cncc(NS(=O)(=O)c5ccc(F)cc5F)c4)cc3c2=O)CC1 [Compound 519] | > 5.00 | > 6.00 | > 5.00 | > 6.00 | – | – | –
34 | CC(C)N1CCC(n2cnc3ccc(-c4cncc(NS(C)(=O)=O)c4)cc3c2=O)CC1 [Compound 520] | < 5.00 | < 5.00 | < 5.00 | < 5.00 | – | – | –

Further lines, with some results ahead:

Row | pIC50 (PI3K β (p110β/p85α)) | pIC50 (PI3K α (p110α/p85α)) | pIC50 (PI3K δ; read-out: PI3K δ IC50) | pIC50 (PI3K γ (p110γ)) | Structure (SMILES) | IC50 (PI3K γ (p110γ); PI3K γ IC50 (nM)) [nM] | IC50 (PI3K β (p110β/p85α); PI3K β IC50 (nM)) [nM] | pIC50 (PI3K δ)
35 | < 5.00 | > 7.00 | < 5.00 | > 6.00 | Nc1nc2cc(-c3ccc4ncc(C(=O)N5CC[C@H](N6CCOCC6)C5)n4c3)ccc2o1 [Compound 465] | – | – | –
36 | > 5.00 | > 6.00 | > 5.00 | > 6.00 | Nc1nc2cc(-c3ccc4ncc(C(=O)N5CC[C@@H](N6CCOCC6)C5)n4c3)ccc2o1 [Compound 466] | – | – | –
37 | > 5.00 | > 7.00 | > 5.00 | > 7.00 | COC1CN(C(=O)c2cnc3ccc(-c4ccc5oc(N)nc5c4)cn23)C1 [Compound 467] | – | – | –
38 | > 5.00 | > 7.00 | < 5.00 | > 7.00 | Nc1nc2cc(-c3ccc4ncc(C(=O)N5CC(F)C5)n4c3)ccc2o1 [Compound 468] | – | – | –
39 | > 5.00 | > 7.00 | > 5.00 | > 6.00 | Nc1nc2cc(-c3ccc4ncc(C(=O)N5CC(N6CC[C@H](O)C6)C5)n4c3)ccc2o1 [Compound 469] | – | – | –
40 | < 5.00 | > 7.00 | < 5.00 | > 7.00 | Nc1nc2cc(-c3ccc4ncc(C(=O)N5CCC(F)(F)C5)n4c3)ccc2o1 [Compound 471] | – | – | –
41 | < 5.00 | > 7.00 | < 5.00 | > 7.00 | Nc1nc2cc(-c3ccc4ncc(C(=O)N5CC(F)(F)C5)n4c3)ccc2o1 [Compound 473] | – | – | –
42 | > 5.00 | > 7.00 | < 5.00 | > 5.00 | C[C@H]1COCCN1C(=O)c1cnc2ccc(-c3ccc4oc(N)nc4c3)cn12 [Compound 483] | – | – | –
43 | > 5.00 | > 7.00 | < 5.00 | > 6.00 | C[C@@H]1COCCN1C(=O)c1cnc2ccc(-c3ccc4oc(N)nc4c3)cn12 [Compound 495] | – | – | –
44 | < 5.00 | > 6.00 | < 5.00 | > 5.00 | Nc1nc2cc(-c3ccc4ncc(C(=O)N5CCC(N6CC(F)(F)C6)C5)n4c3)ccc2o1 (stereo not shown) [Compound 498] | – | – | –
45 | < 5.00 | > 6.00 | < 5.00 | > 5.00 | Nc1nc2cc(-c3ccc4ncc(C(=O)N5CCC6(C5)OCCO6)n4c3)ccc2o1 [Compound 499] | – | – | –
46 | < 5.00 | > 7.00 | > 5.00 | > 6.00 | Nc1nc2cc(-c3ccc4ncc(C(=O)N5CC(N6CCC(F)(F)C6)C5)n4c3)ccc2o1 [Compound 502] | – | – | –
47 | < 5.00 | > 6.00 | < 5.00 | > 7.00 | Nc1nc2cc(-c3ccc4ncc(C(=O)N5CCC(F)CC5)n4c3)ccc2o1 [Compound 503] | – | – | –
48 | < 5.00 | > 6.00 | < 5.00 | > 5.00 | CC1(C)CN(C(=O)c2cnc3ccc(-c4ccc5oc(N)nc5c4)cn23)CCO1 [Compound 513] | – | – | –
49 | > 5.00 | > 7.00 | > 7.00 | > 6.00 | CC1(C)CN(C2CN(C(=O)c3cnc4ccc(-c5ccc6oc(N)nc6c5)cn34)C2)CCN1 [Compound 515] | – | – | –
